Source: patent US8258176B2, “Dithiolopyrrolone compounds, the preparation and the use thereof” (Shanghai Institute of Pharmaceutical Industry, priority 2007, dated 2012)
Where two headings read alike, the source gives them in different places.

Legend:
[1] = test system: bone marrow granulocyte series; experiment: Bone marrow smear microscopic examination of CTX model mice; assay type: in vivo, BALB/c mice; conditions: bone marrow smear after treatment
[2] = test system: peripheral blood leukocytes of model mice; conditions: for NE % (percentage of neutrophils in the total number of white blood cells) / WBC count: CTX model mice
Procedure: Sample: series of dithiolopyrrolone compounds were dissolved in 0.5% CMC—Na to be suspension after grinding with Tween (less than 4% usage).
Cyclophosphamide for Injection (CTX), Shanghai Hualian Pharmaceutical Co., Ltd., batch number: 050606, prepared of being dissolved in saline.
SAIGELI (G-CSF), Shanghai Sunway Biotech Co., Ltd., batch number: 051001
Animal blood analyzer, model: HEMAVET950 • 2. Method
40 BALB/c mice, were randomly divided into five groups, blank control group, positive control (G-CSF) group (22.5 ug/kg), and two dithiolopyrrolone derivatives groups (compounds 001 and 004, 20 mg/kg), CTX model group (100 mg/kg), respectively with 8 mice in each group. rThe blank control group wasn't treated in any way, the other four groups were treated with CTX intraperitoneal injection, 100 mg/kg, once a day. […] G-CSF group was given G-CSF (22.5 ug/kg) subcutaneously once a day, one day after the completing of the injection of CTX. Dithiolopyrrolone derivatives groups were administered with dithiolopyrrolone derivatives (20 mg/kg), through gavaging once a day (0.5 ml), one day after the completing of the injection of CTX. The mice of model group and blank control group were administered with an equivalent 0.5% CMC—Na solution through gavaging.
Blood specimens were collected according to conventional method via the mice orbital vein, on the 0, 4, 6, 8 day respectively, when the day of administering CTX is set as the first day, then the peripheral blood routine test was carried out, and the effect of series of dithiolopyrrolone compounds on peripheral blood leukocytes of normal mice was analyzed. • 3. Results

[3] = test system: peripheral blood leukocytes of normal mice; experiment: Effects on peripheral blood leukocytes of normal mice (peripheral blood routine test); assay type: in vivo; conditions: G-CSF 22.5 ug/kg sc once a day
Description: Animal hematology analyzer, model: HEMAVET950 • 2. Method
The mice were divided into blank control group, positive control group and the dithiolopyrrolone series of compounds group, there are 10 mice in each group.

[4] = day 0 (before CTX 100 mg/kg ip x 3 days)
[5] = day 4, CTX 100 mg/kg ip days 1-3, compounds 20 mg/kg ig, G-CSF 22.5 ug/kg sc once a day from one day after CTX
[6] = day 6, CTX 100 mg/kg ip days 1-3, compounds 20 mg/kg ig, G-CSF 22.5 ug/kg sc once a day from one day after CTX
[7] = day 8, CTX 100 mg/kg ip days 1-3, compounds 20 mg/kg ig, G-CSF 22.5 ug/kg sc once a day from one day after CTX
[8] = day 0 (before administration), compounds 20 mg/kg ig once a day
[9] = day 3, compounds 20 mg/kg ig once a day
[10] = day 5, compounds 20 mg/kg ig once a day

O=P1(N(CCCl)CCCl)NCCCO1 (stereo not shown) [CTX, Cyclophosphamide, reference compound]
granulocyte series in bone marrow smear (microscopic examination) [1]: severely inhibited | total number of white blood cells and percentage of neutrophils after CTX ([2]; CTX 100 mg/kg ip once a day, after three days of administration): significantly decreased | NE % (percentage of neutrophils in the total number of white blood cells) [2, 4]: 28.46% | WBC count [2, 4]: 5.88e+09 L⁻¹ | NE % (percentage of neutrophils in the total number of white blood cells) [2, 5]: 3.33% | WBC count [2, 5]: 1.34e+09 L⁻¹ | NE % (percentage of neutrophils in the total number of white blood cells) [2, 6]: 6.7% | WBC count [2, 6]: 1.2e+09 L⁻¹ | NE % (percentage of neutrophils in the total number of white blood cells) [2, 7]: 38.32% | WBC count [2, 7]: 5.7e+09 L⁻¹

COc1ccc(-n2c3cssc-3c(NC(=O)Oc3ccccc3)c2=O)c(OC)c1 [compound 001]
granulocyte series in bone marrow smear (microscopic examination) [1]: significant hyperplasia and speeding up of the differentiation and maturation | NE % (percentage of neutrophils in the total number of white blood cells) [3, 8]: 33.73% | WBC count [3, 8]: 7.89e+09 L⁻¹ | NE % (percentage of neutrophils in the total number of white blood cells) [3, 9]: 67.44% | WBC count [3, 9]: 1.824e+10 L⁻¹ | NE % (percentage of neutrophils in the total number of white blood cells) [3, 10]: 72.13% | WBC count [3, 10]: 2.496e+10 L⁻¹ | NE % (percentage of neutrophils in the total number of white blood cells) [2, 4]: 27.32% | WBC count [2, 4]: 5.98e+09 L⁻¹ | NE % (percentage of neutrophils in the total number of white blood cells) [2, 5]: 2.48% | WBC count [2, 5]: 1.21e+09 L⁻¹ | NE % (percentage of neutrophils in the total number of white blood cells) [2, 6]: 42.71% | WBC count [2, 6]: 2.75e+09 L⁻¹ | NE % (percentage of neutrophils in the total number of white blood cells) [2, 7]: 76.84% | WBC count [2, 7]: 1.844e+10 L⁻¹

CCOC(=O)Nc1c2sscc-2n(-c2ccc(OC)cc2OC)c1=O [compound 004]
granulocyte series in bone marrow smear (microscopic examination) [1]: significant hyperplasia and speeding up of the differentiation and maturation | NE % (percentage of neutrophils in the total number of white blood cells) [3, 8]: 31.56% | WBC count [3, 8]: 7.65e+09 L⁻¹ | NE % (percentage of neutrophils in the total number of white blood cells) [3, 9]: 56.36% | WBC count [3, 9]: 1.336e+10 L⁻¹ | NE % (percentage of neutrophils in the total number of white blood cells) [3, 10]: 78.24% | WBC count [3, 10]: 1.866e+10 L⁻¹ | NE % (percentage of neutrophils in the total number of white blood cells) [2, 4]: 18.65% | WBC count [2, 4]: 5.86e+09 L⁻¹ | NE % (percentage of neutrophils in the total number of white blood cells) [2, 5]: 4.34% | WBC count [2, 5]: 1.11e+09 L⁻¹ | NE % (percentage of neutrophils in the total number of white blood cells) [2, 6]: 36.47% | WBC count [2, 6]: 1.42e+09 L⁻¹ | NE % (percentage of neutrophils in the total number of white blood cells) [2, 7]: 87.62% | WBC count [2, 7]: 1.528e+10 L⁻¹

B1: G-CSF: granulocyte colony-stimulating factor, SAIGELI, Shanghai Sunway Biotech Co., Ltd.; positive control (protein, UniProt P09919 31-207, looked up)
Granulocyte …: TPLGPASSLPQSFLLKCLEQVRKIQGDGAALQEKLVSECATYKLCHPEELVLLGHSLGIPWAPLSSCPSQALQLAGCLSQLHSGLFLYQGLLQALEGISPELGPTLDTLQLDVADFATTIWQQMEELGMAPALQPTQGAMPAFASAFQRRAGGVLVASHLQSFLEVSYRVLRHLAQP
granulocyte series in bone marrow smear (microscopic examination) [1]: significant hyperplasia and speeding up of the differentiation and maturation | NE % (percentage of neutrophils in the total number of white blood cells) [3, 8]: 25.39% | WBC count [3, 8]: 6.74e+09 L⁻¹ | NE % (percentage of neutrophils in the total number of white blood cells) [3, 9]: 57.86% | WBC count [3, 9]: 1.748e+10 L⁻¹ | NE % (percentage of neutrophils in the total number of white blood cells) [3, 10]: 60.68% | WBC count [3, 10]: 1.922e+10 L⁻¹ | NE % (percentage of neutrophils in the total number of white blood cells) [2, 4]: 30.34% | WBC count [2, 4]: 5.92e+09 L⁻¹ | NE % (percentage of neutrophils in the total number of white blood cells) [2, 5]: 4.58% | WBC count [2, 5]: 1.14e+09 L⁻¹ | NE % (percentage of neutrophils in the total number of white blood cells) [2, 6]: 30.07% | WBC count [2, 6]: 1.84e+09 L⁻¹ | NE % (percentage of neutrophils in the total number of white blood cells) [2, 7]: 59.68% | WBC count [2, 7]: 1.54e+10 L⁻¹
